The values below come from patent US20030018044A1, “Treatment of ocular disease” (priority 2000, published 2003).

The test system of one data set is eye. The data set can be described thus: ocular toxicity after direct intraocular injection. The class given is in vivo, patient. An excerpt:
The toxicity of tacrolimus, which had been reported with tacrolimus administered systemically, was thought to limit its intraocular use. The toxicity of tacrolimus administered intraocularly had not been evaluated. Ocular toxicity may manifest as a gross and/or histologic retinal and/orvitreous toxic reaction. Evidence of such a toxic reaction may include one or more of white vitreous bodies, white vitreous opacities, electroretinography abnormalities such as reduction in mean B-wave amplitude in both scotopic and photopic conditions, occlusion of the temporal retinal vessels, and fibrin deposits.
As used herein, a lack of substantial toxicity encompasses both the absence of any manifestations of toxicity, as well as manifestations of toxicity which one skilled in the art would consider not sufficiently detrimental to decrease or cease treatment.
The intravenous solution form of tacrolimus may be diluted to achieve the indicated concentration using 0.9% NaCl or 5% dextrose, or an organic solvent such as dimethylsulfoxide (DMSO) or alcohol, preferably a low molecular weight alcohol. Intraocular administration may be any of the routes and formulations previously described. For injection, either a solution, emulsion, suspension of a liquid, capsular formulation of microspheres or liposomes, etc. may be used.

The conditions of data set [1]: cited from earlier work.
Another data set deals with atopic dermatitis. Conditions: topical, cited from earlier work.
The subject of the next data set is human skin mast cells. As to conditions: cited from earlier work.

The structures appear in SMILES notation.

With `C=CC[C@@H]1/C=C(\C)C[C@H](C)C[C@H](OC)[C@H]2O[C@@](O)(C(=O)C(=O)N3CCCC[C@H]3C(=O)O[C@H](/C(C)=C/[C@@H]3CC[C@@H](O)[C@H](OC)C3)[C@H](C)[C@@H](O)CC1=O)[C@H](C)C[C@@H]2OC` [Tacrolimus], in the data set with eye, the “dose of direct intraocular injection without substantial toxicity” value is “up to 250 μg”. In data set [1] (chloroform), the solubility in chloroform result is given as “very soluble”. Also, the solubility in ethanol result in data set [1] (ethanol) is “freely soluble”. Further, in data set [1] (methanol), the solubility in methanol entry is listed as “very soluble”. Also, the solubility in water entry in data set [1] (water) is listed as “practically insoluble”. Further, the “adverse effects, treated versus control groups” value with atopic dermatitis (concentrations up to 0.3%) is reported as “no significant difference”. The “clinical improvement in atopic dermatitis” value with atopic dermatitis (doses 0.03%-0.3%, after 2-3 weeks treatment) is “significant clinical improvement”. Further, in the data set with atopic dermatitis, the local tolerability result is “well tolerated locally and only occasionally causes mild irritation”. Also, in the data set on human skin mast cells, the anti-IgE-triggered histamine release entry is “inhibits” and the “prostaglandin D2 synthesis” value is reported as “inhibits”.
